The record followed here is ChEMBL document CHEMBL5543122, “Discovery of HC-7366: An Orally Bioavailable and Efficacious GCN2 Kinase Activator” (J Med Chem, 2024).

Structures are written as SMILES. pIC50: −log10 of the molar value.

Data set [1] can be described thus: Intrinsic clearance in rat hepatocytes assessed per 10^4 cells at 1 uM measured upto 120 mins by UPLC-MS/MS analysis. Particulars: 2 h. The format is ADME, cell-based, Hepatocyte.
Data set [2] is described as follows: Half-life in Sprague-Dawley rat at 1 mg/kg, iv measured upto 24 hrs. Particulars: in vivo. The format is ADME, organism-based.
Data set [3] can be described thus: Toxicity in BALB/c nude mouse xenografted with human MOLM16 cells assessed as change in body weight at 0.3 to 3 mg/kg administered twice a day for 17 days. The format is organism-based. The note with it: in vivo, 408 h, dose 0.3-3 mg/kg, time 17 day. Background: Xenograft models place foreign cells or tissue in a host animal.
Data set [4] deals with T1, Eukaryotic translation initiation factor 2-alpha kinase 3 (Homo sapiens, UniProt Q9NZJ5).
T1 sequence (Q9NZJ5 whole entry): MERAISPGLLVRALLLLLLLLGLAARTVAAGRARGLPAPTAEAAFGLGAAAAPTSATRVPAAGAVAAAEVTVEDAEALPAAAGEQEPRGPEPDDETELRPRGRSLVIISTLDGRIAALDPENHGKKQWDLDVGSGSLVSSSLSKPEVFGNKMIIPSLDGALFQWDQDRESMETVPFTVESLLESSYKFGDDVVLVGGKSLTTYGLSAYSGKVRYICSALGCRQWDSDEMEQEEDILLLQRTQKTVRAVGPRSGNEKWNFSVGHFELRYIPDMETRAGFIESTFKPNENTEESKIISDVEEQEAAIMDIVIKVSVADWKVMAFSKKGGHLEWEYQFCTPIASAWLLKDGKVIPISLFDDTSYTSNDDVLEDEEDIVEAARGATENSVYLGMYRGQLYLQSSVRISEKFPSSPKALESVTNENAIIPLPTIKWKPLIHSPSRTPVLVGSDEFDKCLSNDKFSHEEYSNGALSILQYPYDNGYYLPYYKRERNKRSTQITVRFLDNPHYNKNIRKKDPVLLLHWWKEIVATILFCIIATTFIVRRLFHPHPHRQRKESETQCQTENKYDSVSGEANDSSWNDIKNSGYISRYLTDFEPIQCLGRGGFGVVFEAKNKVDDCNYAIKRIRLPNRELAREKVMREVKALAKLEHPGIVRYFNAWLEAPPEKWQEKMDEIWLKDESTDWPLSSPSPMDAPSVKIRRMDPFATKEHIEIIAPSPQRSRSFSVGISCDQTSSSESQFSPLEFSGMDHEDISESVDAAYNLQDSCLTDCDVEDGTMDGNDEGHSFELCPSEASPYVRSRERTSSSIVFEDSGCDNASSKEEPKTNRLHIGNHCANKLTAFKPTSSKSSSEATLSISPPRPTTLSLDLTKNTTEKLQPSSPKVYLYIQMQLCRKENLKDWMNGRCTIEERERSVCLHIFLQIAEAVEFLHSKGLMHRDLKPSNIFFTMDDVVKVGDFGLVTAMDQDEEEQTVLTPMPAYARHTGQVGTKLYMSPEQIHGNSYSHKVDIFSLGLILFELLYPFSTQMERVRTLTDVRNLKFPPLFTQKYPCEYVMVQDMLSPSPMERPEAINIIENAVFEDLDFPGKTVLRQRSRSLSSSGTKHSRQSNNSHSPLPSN
The data set can be described thus: Inhibition of PEK in human MOLM16 cells. The format is cell-based.

Data set [5] in a line: Protein binding in HEK293 cells assessed as free fraction. The format is ADME, cell-based. Particulars: human.

In general, half-life refers to how long it takes for the measured level to halve. A high value points to slow decline. As usually defined, the pIC50 is the negative decadic logarithm of the IC50, by convention in mol/L. A higher pIC50 goes with a small IC50. For orientation: fraction unbound means free concentration divided by total concentration. For the compound `CNC(=O)c1ncn2cc(-c3c(F)ccc(NS(=O)(=O)c4cc(Cl)cnc4OC)c3F)ncc12`, in data set [1], the CLH came to 3.5 µL/min. In data set [2], the half-life was 6.3 h. Further, the Activity result in data set [3] is given as “Non-Toxic”. For the same compound, the pIC50 in data set [4] was 5.28. Also, in data set [5], the fraction unbound came to 0.35.
